Measured values taken from patent US20190060261A1, “ACTIVE COMBINATIONS OF PERILLIC ACID AND ACTIVITY ENHANCING SUBSTANCES” (B.R.A.I.N BIOTECHNOLOGY RESEARCH AND INFORMATION NETWORK AG, priority 2016, published 2019).
Values after ≈ are worked out from the molar mass of the structure shown. Read-outs that look alike come from different tables or passages of the source.

Columns and labels:
Pseudomonas aeruginosa = assay: Combination of substances with perillic acid: reduction of the MIC of perillic acid; assay type: cell-based; conditions: test compound combined with perillic acid; experiments as in Example 1
Protocol: (§1) All experiments were done in 96-well plates in a final volume of 200 μL. Test solutions of the investigated compounds were prepared in 25 mM buffered water. The procedure was conducted as following: 4 μL of the particular stock solution were mixed with 196 μL culture medium containing a defined inoculum of the respective target strain. Sterile controls (not inoculated) and growth controls (buffer instead of compound added) were performed. All compound concentrations were tested in triplicate for several times. The following contamination germs were examined: Escherichia coli ATCC 8739, Pseudomonas aeruginosa ATCC 9027, Stapyhlococcus aureus ATCC®6538, Bacillus subtilis subsp. spizizenii ATCC®6633, Candida albicans ATCC®10231 and Aspergillus brasiliensis ATCC®16404. The strains were cultivated either in Mueller-Hinton II Bouillon (Escherichia coli, Pseudomonas aeruginosa, Staphylococcus aureus), in yeast peptone dextrose (Bacillus subtilis, Candida albicans) or in potato dextrose medium (Aspergillus brasiliensis). All culture media were buffered with 25 mM MES-buffer. For compound testing, the plates were incubated at 37° C. for Escherichia coli, Pseudomonas aeruginosa and Staphylococcus aureus, at 28° C. for Bacillus subtilis and Candida albicans, and at 25° C. for Aspergillus brasiliensis. Plates were evaluated after 24 h and 72 h, respectively. The minimal inhibitory concentration (MIC) is defined as the concentration where no microbial growth was observed after 24 h and 72 h incubation at the specified temperature.
(§2) Activity of perillic acid was comparably low against Gram-negative bacteria. It was thus tested whether the respective MIC could be reduced by combination of perillic acid with selected substances.
(§3) Experiments were performed as described for Example 1 above. A reduction factor was determined, expressing the reduction of the MIC of perillic acid that was achievable by combination with the combination partner. For example, a reduction factor of 2 means that the MIC of perillic acid was reduced by a factor of 2 by combination of perillic acid with the respective activity enhancing substance.

Escherichia coli = assay: as above; assay type: cell-based; conditions: test compound combined with perillic acid; experiments as in Example 1
Protocol: as §1, §2, §3

[1] = tested on: Stapyhlococcus aureus ATCC®6538; assay: Minimal inhibition concentration (MIC), microdilution method; assay type: cell-based, Staphylococcus aureus; conditions: for MIC: Staphylococcus aureus
Source text: (§4) The antimicrobial activity of different substances was examined and compared to perillic acid in vitro using the microdilution method adapted from DIN EN ISO 20776-1:2006. Besides perillic acid and its sodium salt, other organic acids like levulinic acid, p-anisic acid, benzoic acid and sorbic acid as well as alkane-1,2-diols such as hexane-1,2-diol, octane-1,2-diol and decane-1,2-diol were studied. Additionally, the commonly used preservatives 2-phenoxyethanol, 2-phenylethanol and benzyl alcohol were investigated.
as §1
(§5) MIC-values are given according to the following letter code.

[2] = tested on: Escherichia coli ATCC 8739; assay: Minimal inhibition concentration (MIC), microdilution method adapted from DIN EN ISO 20776-1:2006; assay type: cell-based; conditions: for MIC: Escherichia coli
Source text: as §4, §1, §5

[3] = tested on: Candida albicans ATCC®10231; assay: Minimal inhibition concentration (MIC), microdilution method; assay type: cell-based; conditions: for MIC: Candida albicans
Source text: as §4, §1, §5

[4] = tested on: Bacillus subtilis subsp. spizizenii ATCC®6633; assay: as above; assay type: cell-based; conditions: for MIC: Bacillus subtilis
Source text: as §4, §1, §5

[5] = tested on: Aspergillus brasiliensis ATCC®16404; assay: as above; assay type: cell-based; conditions: for MIC: Aspergillus brasiliensis
Source text: as §4, §1, §5

[6] = tested on: Pseudomonas aeruginosa ATCC 9027; assay: as above; assay type: cell-based; conditions: for MIC: Pseudomonas aeruginosa
Source text: as §4, §1, §5

[7] = ATCC8739, read-out: MIC [A to D] Escherichia coli
[8] = ATCC10231, read-out: MIC [A to D] Candida albicans
[9] = ATCC6633, read-out: MIC [A to D] Bacillus subtilis
[10] = ATCC9027, read-out: MIC [A to D] Pseudomonas aeruginosa
[11] = ATCC6538, Mueller-Hinton II Bouillon, 25 mM MES-buffer, 37° C., no growth after 24 h and 72 h, read-out: MIC [A to D] Staphylococcus aureus
[12] = ATCC8739, Mueller-Hinton II Bouillon, 25 mM MES-buffer, 37° C., no growth after 24 h and 72 h, read-out: MIC [A to D] Escherichia coli
[13] = ATCC10231, yeast peptone dextrose, 25 mM MES-buffer, 28° C., no growth after 24 h and 72 h, read-out: MIC [A to D] Candida albicans
[14] = ATCC6633, yeast peptone dextrose, 25 mM MES-buffer, 28° C., no growth after 24 h and 72 h, read-out: MIC [A to D] Bacillus subtilis
[15] = ATCC16404, potato dextrose medium, 25 mM MES-buffer, 25° C., no growth after 24 h and 72 h, read-out: MIC [A to D] Aspergillus brasiliensis
[16] = ATCC9027, Mueller-Hinton II Bouillon, 25 mM MES-buffer, 37° C., no growth after 24 h and 72 h, read-out: MIC [A to D] Pseudomonas aeruginosa
[17] = Mueller-Hinton II Bouillon, 25 mM MES-buffer, 37° C., no growth after 24 h and 72 h
[18] = yeast peptone dextrose, 25 mM MES-buffer, 28° C., no growth after 24 h and 72 h
[19] = potato dextrose medium, 25 mM MES-buffer, 25° C., no growth after 24 h and 72 h

| SMILES | Reduction factor (reduction of the MIC of perillic acid by combination with the test compound) Pseudomonas aeruginosa (Pseudomonas aeruginosa) | Reduction factor (reduction of the MIC of perillic acid by combination with the test compound) Escherichia coli (Escherichia coli) | MIC [2, 12] [µg/mL] | MIC [5, 15] [µg/mL] | MIC [6, 16] [µg/mL] | MIC [A to D] Staphylococcus aureus [1, 17] | MIC [A to D] Candida albicans [3, 18] | MIC [A to D] Bacillus subtilis [4, 18] | MIC [A to D] Aspergillus brasiliensis [5, 19] | MIC [A to D] Pseudomonas aeruginosa [6, 17] | MIC [A to D] Escherichia coli [2, 17] | other results |
| --- | --- | --- | --- | --- | --- | --- | --- | --- | --- | --- | --- | --- |
| OCCOc1ccccc1 [2-Phenoxyethanol, reference compound] | 20 | 30 |  |  |  |  |  |  |  |  |  | MIC ([1]; ATCC6538, read-out: MIC [A to D] Staphylococcus aureus): 5000 to 10000 µg/mL (≈ 36.2 to 72.4 mM); MIC [2, 7]: 5000 to 10000 µg/mL (≈ 36.2 to 72.4 mM); MIC [3, 8]: 5000 to 10000 µg/mL (≈ 36.2 to 72.4 mM); MIC [4, 9]: 5000 to 10000 µg/mL (≈ 36.2 to 72.4 mM); MIC ([5]; ATCC16404, read-out: MIC [A to D] Aspergillus brasiliensis): 5000 to 10000 µg/mL (≈ 36.2 to 72.4 mM); MIC [6, 10]: 5000 to 10000 µg/mL (≈ 36.2 to 72.4 mM) |
| OCCc1ccccc1 [2-Phenylethanol, reference compound] | 8 | 40 | 5000 to 10000 (≈ 40.9 to 81.9 mM) | 5000 to 10000 (≈ 40.9 to 81.9 mM) | 5000 to 10000 (≈ 40.9 to 81.9 mM) |  |  |  |  |  |  | MIC [1, 11]: 5000 to 10000 µg/mL (≈ 40.9 to 81.9 mM); MIC [3, 13]: 5000 to 10000 µg/mL (≈ 40.9 to 81.9 mM); MIC [4, 14]: 5000 to 10000 µg/mL (≈ 40.9 to 81.9 mM) |
| OCc1ccccc1 [Benzyl Alcohol, reference compound] | 5 | 20 | 5000 to 10000 (≈ 46.2 to 92.5 mM) | 5000 to 10000 (≈ 46.2 to 92.5 mM) | 5000 to 10000 (≈ 46.2 to 92.5 mM) |  |  |  |  |  |  | MIC [1, 11]: 5000 to 10000 µg/mL (≈ 46.2 to 92.5 mM); MIC [3, 13]: 5000 to 10000 µg/mL (≈ 46.2 to 92.5 mM); MIC [4, 14]: 5000 to 10000 µg/mL (≈ 46.2 to 92.5 mM) |
| CCCCCCCCC(O)CO (stereo not shown) [Decane-1,2-diol] |  |  | 1000 to 5000 (≈ 5.74 to 28.7 mM) |  | 1000 to 5000 (≈ 5.74 to 28.7 mM) | D (MIC<0.1% (w/v)) | D (MIC<0.1% (w/v)) | D (MIC<0.1% (w/v)) | D (MIC<0.1% (w/v)) |  |  |  |
| CC(=O)C1C(=O)C=C(C)OC1=O (stereo not shown) [Dehydroacetic acid] |  |  |  |  |  | D (MIC<0.1% (w/v)) | D (MIC<0.1% (w/v)) | D (MIC<0.1% (w/v)) | D (MIC<0.1% (w/v)) |  |  | MIC [2, 7]: 1000 to 5000 µg/mL (≈ 5.95 to 29.7 mM); MIC [6, 10]: 1000 to 5000 µg/mL (≈ 5.95 to 29.7 mM) |
| CCCCCCCCCCC(O)CO (stereo not shown) [Dodecane-1,2-diol] |  |  | 5000 to 10000 (≈ 24.7 to 49.4 mM) |  |  | D (MIC<0.1% (w/v)) | D (MIC<0.1% (w/v)) | D (MIC<0.1% (w/v)) | D (MIC<0.1% (w/v)) | D (MIC<0.1% (w/v)) |  |  |
| CCCCC(O)CO (stereo not shown) [Hexane-1,2-diol] |  |  | 5000 to 10000 (≈ 42.3 to 84.6 mM) | 5000 to 10000 (≈ 42.3 to 84.6 mM) | 5000 to 10000 (≈ 42.3 to 84.6 mM) | A (MIC>1% (w/v)) | A (MIC>1% (w/v)) | A (MIC>1% (w/v)) |  |  |  |  |
| C/C=C/C=C/C(=O)[O-].[K+] [Potassium sorbate] | 40 | 200 |  |  |  | A (MIC>1% (w/v)) |  |  | A (MIC>1% (w/v)) | A (MIC>1% (w/v)) |  | MIC [2, 7]: 5000 to 10000 µg/mL; MIC [3, 8]: 5000 to 10000 µg/mL; MIC [4, 9]: 1000 to 5000 µg/mL |
| C=C(C)[C@H]1CC=C(C(=O)O)CC1 [R-Perillic acid] |  |  |  |  |  | D (MIC<0.1% (w/v)) | D (MIC<0.1% (w/v)) | D (MIC<0.1% (w/v)) | D (MIC<0.1% (w/v)) | B (MIC=0.5-1% (w/v)) | C (MIC=0.1-0.5% (w/v)) |  |
| C=C(C)[C@@H]1CC=C(C(=O)O)CC1 [S-Perillic acid] |  |  |  |  |  | D (MIC<0.1% (w/v)) | D (MIC<0.1% (w/v)) | D (MIC<0.1% (w/v)) | D (MIC<0.1% (w/v)) | B (MIC=0.5-1% (w/v)) | C (MIC=0.1-0.5% (w/v)) |  |
| O=C(O)c1ccccc1O [Salicylic acid] | 80 | 40 |  | 1000 to 5000 (≈ 7.24 to 36.2 mM) |  | D (MIC<0.1% (w/v)) |  | D (MIC<0.1% (w/v)) |  | D (MIC<0.1% (w/v)) | D (MIC<0.1% (w/v)) | MIC [3, 13]: 1000 to 5000 µg/mL (≈ 7.24 to 36.2 mM) |
| O=C([O-])c1ccccc1.[Na+] [Sodium benzoate] |  |  |  |  |  | B (MIC=0.5-1% (w/v)) | C (MIC=0.1-0.5% (w/v)) | D (MIC<0.1% (w/v)) | A (MIC>1% (w/v)) | B (MIC=0.5-1% (w/v)) | B (MIC=0.5-1% (w/v)) |  |
| C=C(C)C1CC=C(C(=O)[O-])CC1.[Na+] (stereo not shown) [Sodium perillate] |  |  |  |  |  | D (MIC<0.1% (w/v)) | D (MIC<0.1% (w/v)) | D (MIC<0.1% (w/v)) | D (MIC<0.1% (w/v)) | B (MIC=0.5-1% (w/v)) | C (MIC=0.1-0.5% (w/v)) |  |
| COc1ccc(C(=O)O)cc1 [p-Anisic acid] |  |  | 1000 to 5000 (≈ 6.57 to 32.9 mM) | 1000 to 5000 (≈ 6.57 to 32.9 mM) | 1000 to 5000 (≈ 6.57 to 32.9 mM) |  |  |  |  |  |  | MIC [1, 11]: 1000 to 5000 µg/mL (≈ 6.57 to 32.9 mM); MIC [3, 13]: 5000 to 10000 µg/mL (≈ 32.9 to 65.7 mM); MIC [4, 14]: 1000 to 5000 µg/mL (≈ 6.57 to 32.9 mM) |
